Measured values published in the supplement of paper PMC12532568.

Test system: Danio rerio larvae Tg(actc1b:ZsGreen-LC3), 3 dpf
Assay: LC3 puncta relative area vs vehicle (mean) (log2 fold change); higher = more autophagy
Details: treatment time 16 h
Experimental: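 Transgenic ZsGreen-LC3 zebrafish larvae (2 dpf) were treated for 16 h with natural bioactives at 10, 50, 100 or 250 µM. Skeletal-muscle LC3 puncta area was measured by high-content imaging with or without 4 h of 100 mM NH4Cl, normalised to vehicle, and reported as the mean log2 fold change over 4–21 larvae.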

Compound | LC3 puncta (log2) (NH4Cl: + NH4Cl, 10 µM) | LC3 puncta (log2) (NH4Cl: + NH4Cl, 50 µM) | LC3 puncta (log2) (NH4Cl: + NH4Cl, 100 µM) | LC3 puncta (log2) (NH4Cl: + NH4Cl, 250 µM) | LC3 puncta (log2) (NH4Cl: - NH4Cl, 10 µM) | LC3 puncta (log2) (NH4Cl: - NH4Cl, 50 µM) | LC3 puncta (log2) (NH4Cl: - NH4Cl, 100 µM) | LC3 puncta (log2) (NH4Cl: - NH4Cl, 250 µM)
Cc1ccc(C(C)C)c(O)c1 [Thymol] | 0.947 | 1.4 | 1.68 | 1.55 | 0.0897 | 0.575 | 0.869 | 1.65
O=c1oc2cc(O)ccc2c2ccccc12 [Urolithin B] | 0.159 | 1.38 | 1.04 | – | 0.474 | 0.688 | 0.767 | –
CC(O)CC(=O)O (centres undefined) [3-Hydroxybutyrate] | 0.306 | 0.707 | 0.353 | 0.884 | 0.219 | 0.327 | 0.00999 | 0.0766
CCCCCCCCCCCCCCCC(=O)O [Palmitic acid] | 0.572 | 0.0741 | 0.0454 | 0.114 | 0.561 | -0.136 | -0.712 | -0.593
CC1=C(/C=C/C(C)=C/C=C/C(C)=C/CO)C(C)(C)CCC1 [Retinol] | 1.19 | 0.124 | 0.0946 | – | 0.12 | -0.269 | 0.255 | 0.596
CC(O)CC(=O)O (centres undefined) [Sodium 3-hydroxybutyrate] | 0.123 | 0.569 | 0.8 | 0.884 | 0.0599 | 0.278 | 0.0997 | 0.295
CCC(O)CC(=O)O (centres undefined) [b-Hydroxyvalerate] | 0.933 | 0.6 | 1.08 | 1.21 | 0.353 | 0.272 | 0.404 | 0.37
N[C@@H](CCC(=O)O)C(=O)O [L-glutamic acid] | 0.755 | 0.239 | 0.876 | 0.997 | 0.144 | 0.165 | 0.702 | 0.322
O=C(O)c1ccccc1 [Benzoic acid] | -0.0668 | 0.917 | 1.5 | – | 0.129 | 0.383 | 1.14 | –
O=C(O[C@@H]1Cc2c(O)cc(O)cc2O[C@@H]1c1ccc(O)c(O)c1)c1cc(O)c(O)c(O)c1 [(-)-Epicatechin gallate] | 0.221 | 0.493 | 0.661 | – | -0.0294 | 0.253 | 0.0524 | –
O=C(O)C[C@H](O)C(=O)O [(2S)-2-hydroxybutanedioic acid] | 0.631 | 0.508 | 0.375 | – | -0.158 | 0.038 | 0.417 | 0.262
O=c1oc2c(O)c(O)cc3c(=O)oc4c(O)c(O)cc1c4c23 [Ellagic acid] | 0.705 | 0.347 | 0.0739 | 0.0325 | 0.154 | -0.476 | -0.223 | 0.00958
NC(=O)c1ccc[n+]([C@@H]2O[C@H](CO)[C@@H](O)[C@H]2O)c1 [Nicotinamide riboside chloride] | 0.917 | 0.613 | 0.663 | 0.76 | 0.148 | -0.293 | 0.0672 | 0.257
CC(=O)CC(=O)O [Lithium acetoacetate] | 0.433 | 0.388 | 0.24 | 0.594 | 0.304 | -0.266 | -0.279 | 0.0398
